From US7947253B2, “Perturbed membrane-binding compounds and methods of using the same” (Aposense Ltd., priority 2004, dated 2011)

Columns and labels:
[1] = system: HeLa S3 cells undergoing apoptosis; experiment: Fluorescent microscopy of binding to cultured HeLa cells undergoing apoptosis; format: cell-based; conditions: aged HeLa culture, fluorescence, FIG. 3
Protocol: HeLa S3 cells (ATCC CCL-2.2) were grown in Dulbecco's modified Eagle's medium (DMEM), supplemented with 2 mM of L-glutamine; 100 units/ml of penicillin; 100 μg/ml of streptomycin; 12.5 units/ml of nystatin and 10% of fetal calf serum (FCS). Cells were seeded at a density of 5×10^6 cells/plate, on a […] culture plates, in a volume of 10 ml, and were allowed to age by incubating the culture for 96 hours without exchange of the growth-medium. As a result, a marked percentage of the cells became apoptotic. Cells were harvested using a cell scraper, separated to single cells by passage through a syringe with a 18 G needle, and re-suspended at a density of 10^6 cells/ml in PBS buffer at pH=7.4. As was shown before NST 203 including a dansylamide group which enables the visualization of the fluorescence of a single cell.

[2] = system: brain and spinal cord white matter in EAE; experiment: Autoradiography imaging of experimental autoimmune encephalomyelitis (EAE); format: in vivo, C3H.SW/C57/bl female mice; conditions: FIG. 12
[3] = system: Murine colon carcinoma cells (CT-26) tumors; experiment: Uptake into colon carcinoma tumors: effect of chemotherapy (scintillation counting); format: in vivo, Balb/C mice
Protocol: Murine colon carcinoma cells (CT-26) (ATCC CRL-2638) were maintained in RPMI (Gibco, UK), 2 mM of L-glutamine; 100 units/ml of penicillin; 100 μg/ml of streptomycine; 12.5 units/ml nystatin; and 10% heated inactivation FCS. Studies were carried out in adult male Balb/C mice 8-10 weeks old (weighting 20-25gr).
Cells were trypsinized, washed twice with HBS (140 mM NaCl; […], PH 7.4) and than centrifuged (5 min, 1000 rpm, 4° C.) and concentrated into 2×10^6 cells/ml in a mixture of (2%) methyl cellulose and saline (1:3). A volume of 0.2 ml of the above solution (containing 4×10^5 cells/dose) was injected subcutaneously into the mice abdomen in both sides while mice were anaesthetized. Anaesthetic stock solution was prepared from 0.85 ml Ketamine (100 mg/ml)+0.15 ml Xilazine (2%) diluted 1:10. 0.1 ml of diluted solution was injected (i.p.) per 10 gr body weight.
Mice were examined daily for palpable tumor formation. 7-10 days after tumor injection small tumors were visible.
Uptake of ^3H-NST200 into tumors was measured following treatment of colon carcinoma tumors with i.v. injection of two doses of doxorubicin (20 mg/kg, 72 hours apart). 48 hours after the second dose, the mice were intravenously injected with ^3H-NST200 (10 μCi/animal). Four hours later, tumors were collected, weighed and the tissue was processed: tumor lysis was performed using SOLVABLE™ reagent (GNE9100, Packard Bioscience) in a ratio of one ml reagent per 150 mg of tumor tissue at 60° C. in 20 ml scintillation glass vials. Following 2-4 hours, one ml from each tissue extract was transferred to a glass scintillation vial. To reduce color quenching problems, samples were treated with 0.4 ml of 30% H2O2 in the presence of 0.066M EDTA. […] The vials were incubated for 1 hr at RT, and than analyzed in a β-counter (TRI-CARB 2100TR, liquid scintillation analyzer, Packard Bioscience). All samples were measured in triplicates Values of percents of injected dose (% ID/g tissue) were calculated for each sample.

colon carcinoma tumors [4] = experiment: Autoradiography of response to chemotherapy in a mouse model of colon carcinoma; format: in vivo, Balb/c male mice; conditions: 4 h after i.v. injection
Protocol: Colon carcinoma model was established in the abdomen of Balb/c male mice. At day 12-14 when tumor size was […] in diameter, the uptake of NST200 into tumors was measured following treatment of colon carcinoma tumors with i.v. injection of two doses of doxorubicin (20 mg/kg, 72 hours apart). Fourty-eight hours after the chemotherapy, both the control non-treated and the chemotherapy-treated animals were injected intravenously with and radio-labeled NST200 (80 μCi/animal) Four hours later, the animals were sacrificed. 10 μm frozen sections were prepared, air-dried and exposed to a tritium sensitive film. The film was exposed for a duration of 7 weeks, developed and analyzed by densitometny measurement. Measurement of ^3H-DDC densities in optical density/mm^2, […] was assessed by TINA software. Signals were translated according to a Microscale autoradiography standards and expressed in nCi/mg units.

[5] = system: Jurkat cells undergoing apoptosis induced by CD95; experiment: Binding of tritium-labeled compounds to cultured Jurkat cells undergoing apoptosis induced by CD95; format: cell-based, human
Protocol: Cultured Jurkat cells (human adult T cell leukemia cells) were grown in suspension in RPMI medium (Beit-Haemek, Israel), supplemented with 10% fetal calf serum (FCS), 2 mM of L-glutamide, 1 mM of sodium pyruvate, 1 mM HEPES and antibiotics (100 units/ml penicilin; 100 μg/ml streptomycin and 12.5 units/ml of nystatin). Prior to induction of apoptosis, medium was replaced with HBS buffer (10 mM HEPES; 140 mM NaCl, 1 mM CaCl). Apoptosis was then triggered by treatment with CD95 (0.1 ug/10^7 cells/ml). As a result, a marked percentage of the cells became apoptotic. Non-treated cells served as control. Both control cells and apoptotic cells were then incubated for 40 minutes at room temperature followed by 30 minutes on ice with (2 μCi/10^7 cells/0.5 ml) tritium-labeled NST 200 and NST 205.
After washing the cells twice, 1 ml of SOLVABLE™ reagent (GNE9100, Packard Biosciences) was added to the pellet. Following one hour of incubation at 60° C., the extracts were transferred into glass scintillation vials and 10 ml of scintillation liquid (Ultima gold 6013329, Packard Biosciences) was added to each vial. The radioactivity was counted after 1 hour of cooling to room temperature and dark adaptation. The radioactive values were calculated and presented in percents of total added radiolabeled NST 200 and NST 205

[6] = system: brain regions of apoptotic/necrotic cell death; experiment: Autoradiography of apoptotic damage following middle cerebral artery occlusion in mice; format: in vivo, Balb/C mice
Protocol: p-MCA was induced through a subtemporal approach in Balb/C mice with an outcome of a pronounced ischemic damage. Twenty-two hours after p-MCA, the animal's neurological score was assessed (from 0-no clinical signs to 3-hemiplegia, circling and catatonia) and radio-labeled NST200 (80 μCi/animal) was intravenously injected for successive 2 h before sacrificing the animals. 10 μm frozen sections were prepared, air-dried and exposed to a tritium sensitive film (Hyperfilm-3h, RPN535B Amersharn-Pharmacia, Eu). The film was exposed for a duration of 7 weeks, developed (GBX Developer & Fixer, Kodak, USA) and analyzed by densitometry measurement. Measurement of ^3H-DDC densities in optical density/mm^2, in the ischemic core vs. the contralateral hemisphere signal was assessed by TINA software. Signals were translated according to a Microscale autoradiography standards (RPN510 Amersham-Pharmacia, Eu) and expressed in nCi/mg units.

colon carcinoma tumors [7] = experiment: Uptake into treated colon carcinoma tumors compared with tumor volume; format: in vivo, Balb/c male mice
Protocol: Colon carcinoma model was established in the abdomen of Balb/c male mice, as described in Example No. 10. At day 12-14 when tumor size was 6-8 mm in diameter, mice were injected intravenously with doxorubicin. A total of 2 doses of doxorubicin were given, separated by 3 days interval (each dose was 20 mg/Kg).
Two days after the second doxorubicin injection, mice were injected i.v. with 10 μCi of ^3H-NST200 in a volume of 0.2 ml saline. Four hours following ^3H-NST200 injection, mice were sacrificed by pental overdosing. Tumors were collected in ependorff tubes, weighted and frozen in −20° C.
Tumor lysis was performed using SOLVABLE™ reagent (GNE9100, Packard Bioscience) in a ratio of 1 ml reagent per 150 mg of tumor tissue at 60° C. in 20 ml scintillation glass vials. Following 2-4 hours, 1 ml from each tissue extract was transferred to a glass scintillation vial. To reduce color quenching problems, samples were treated with 0.4 ml of 30% H2O2 in the presence of 0.066M EDTA. […] The vials were incubated for 1 hr at RT, and than analyzed in a β-counter (TRI-CARB 2100TR, liquid scintillation analyzer, Packard Bioscience). Values of percents of injected dose (% ID/g tissue) were calculated for each sample. […] The uptake values of NST200 after each dose were correlated with tumor volume, which were calculated by the formula (assuming spherical tumors) V=πD^3/6, where D is the average tumor diameter.

[8] = system: colon carcinoma tumor vs other organs; experiment: Biodistribution in colon carcinoma tumor bearing mice; format: in vivo, Balb/c male mice; conditions: doxorubicin treated mice, 4 h after injection, table of FIG. 7
Protocol: Colon carcinoma model was established in the abdomen of Balb/c male mice, as described in previous example, and ^3H-NST200 (10 μCi) was injected to animals treated with doxorubicin. Four hours later, the animals were sacrificed and various organs/tissues were collected and processed, to determine the accumulation of ^3H-NST200 within them. The uptake in each organ was expressed as % of the injected dose (ID), and the ratio between the uptake in the tumor and other organs was calculated, as shown in the table attached hereto as FIG. 7.

[9] = system: injured regions within the outer medulla of the kidney; experiment: Autoradiography in a rat model of radiocontrast-induced acute distal tubular necrosis; format: in vivo, rats; conditions: 24 h after insult, 1 h after i.v. injection, FIG. 11
Protocol: Nephropathy with selective medullary hypoxic tubular damage was induced by the combined administration of indomethacin (Sigma Chemical Co.), 10 mg/kg, i.v., N^ωnitro-L-arginine methyl ester (L-NAME, Sigma Chemical Co.), 10 mg/kg, i.v., and radiocontrast agent sodium-iothalamate 80% (Angio-Conray, Mallinckrodt Inc), 6 mL/kg, i.a. Additional rats injected with vehicles served as control. Twenty-four hours after insult, animals, both control and experimental were intravenously injected with 100 μCi of ^3H-NST205 and one hour later kidneys were excised and frozen in liquid nitrogen.

[10] = system: kidney regions of apoptotic/necrotic cell death; experiment: Autoradiography of rat renal ischemia-reperfusion; format: in vivo, rats

Q: `CCCCNS(=O)(=O)c1cccc2c(N(C)C)cccc12` [BDA, n-butyl-dansylamide] was tested. Which “selectivity of binding to apoptotic vs non-apoptotic cells” value [1] did it give?
A: did not manifest this selectivity

Q: How did the “radio-ligand accumulation in brain vs control non-immunized mouse” value ([2]; coronal brain sections, 1 h after i.v. injection) turn out when `CCCCC(C)(C(=O)O)C(=O)O` [NST200] was run?
A: excess of radio-ligand accumulation in the whole brain

Q: What about the “accumulation at the spinal cord level vs control untreated animal” value ([2]; longitudinal spinal cord section) of the same compound?
A: impressive accumulation

Q: And the “mean value of uptake in the treated group” value ([3]; doxorubicin treated tumors, 48 hr after second dose, 4 h after i.v. injection)?
A: 1.28 % ID/gr

Q: What about the “mean uptake of treated group relative to mean value of the control group” value ([3]; doxorubicin treated vs non treated tumors) of the same compound?
A: 12.1 fold

Q: And the “increase in uptake in some treated tumors as compared with the control group” value ([3]; some chemotherapy-treated tumors)?
A: 40-50 fold

Q: What about the “uptake in tumors upon induction of cell death via chemotherapy (autoradiography)” value (colon carcinoma tumors [4]; 48 h after two doses of doxorubicin, FIGS. 5B and C) of the same compound?
A: dramatic increase

Q: What about the “uptake in non-treated tumors (autoradiography)” value (colon carcinoma tumors [4]; control non-treated mice, FIG. 5A) of the same compound?
A: no uptake

Q: What about the “uptake in apoptotic cells compared to the non-apoptotic cells” value ([5]; tritium-labeled compound, CD95-induced apoptosis, FIG. 2A) of the same compound?
A: over 8 fold

Q: And the “targeting of injury within regions of apoptotic/necrotic cell death (autoradiography)” value ([6]; 22 h after p-MCA, i.v., 2 h, FIG. 9)?
A: specificity of targeting the injury

Q: And the “uptake in damaged brain hemisphere compared to the contralateral non-damaged hemisphere” value ([6]; tritium-labeled compound)?
A: markedly higher levels of uptake

Q: And the “increase in uptake in tumors after 2 doses of doxorubicin” value (colon carcinoma tumors [7]; two days after second dose, 4 h after i.v. injection, vs control non-treated tumors)?
A: 18.5 fold

Q: What about the “ratio of uptake in the tumor vs. all organs” value [8] of the same compound?
A: > 1

Q: How did the “homing in kidney (autoradiography)” value [9] turn out when `CCCCC(CCCF)(C(=O)O)C(=O)O` [NST205, 2-butyl-2(3-fluoropropyl)-malonic acid] was run?
A: primarily restricted to injured regions within the outer medulla

Q: And the “effect of adding caspase inhibitor ZVAD on the higher uptake in apoptotic cells” value ([5]; CD95, plus ZVAD, FIG. 2B)?
A: completely reversed

Q: What about the “uptake in apoptotic cells in comparison to the non apoptotic cells” value ([5]; tritium-labeled compound, CD95-induced apoptosis, FIG. 2B) of the same compound?
A: higher uptake

Q: And the “targeting of injury within regions of apoptotic/necrotic cell death in ischemic kidney (autoradiography)” value ([10]; 45 minutes ischemia, 24 hours reperfusion, 1 h after i.v. injection, FIG. 10)?
A: specificity of targeting the injury

Q: And the “uptake into contralateral kidney” value ([10]; contralateral untreated kidney of same animal)?
A: no ^3H-NST205 uptake into contralateral kidney

Q: For `COc1cccc2c1C(=O)c1c(O)c3c(c(O)c1C2=O)C[C@@](O)(C(=O)CO)C[C@@H]3O[C@H]1C[C@H](N)[C@H](O)[C@H](C)O1` [doxorubicin, reference compound], which “increase in tumor volume as compared to control non-treated tumors” value (colon carcinoma tumors [7]; 2 doses of 20 mg/Kg i.v., 5 days, controls collected 5 days earlier, non-significant) is on record?
A: 50%
